Reference: patent US20070219203A1, “Arylalkylamino-substituted quinazoline analogues” (Neurogen Corporation, priority 2004, published 2007)

These compounds were tested against T1, human capsaicin receptor (Homo sapiens, UniProt Q8NER1) (assay: Calcium mobilization assay, antagonist activity (Example 6)). Details: Table I; 50% decrease in fluorescence response of cells expressing human capsaicin receptor exposed to capsaicin.
T1 construct: expressed in transfected cells
Format: cell-based
Protocol: A cDNA encoding full length human capsaicin receptor (SEQ ID NO:1, 2 or 3 of U.S. Pat. No. 6,482,611) is subcloned in the plasmid pBK-CMV (Stratagene, La Jolla, Calif.) for recombinant expression in mammalian cells.
Human embryonic kidney (HEK293) cells are transfected with the pBK-CMV expression construct encoding the full length human capsaicin receptor using standard methods. The transfected cells are selected for two weeks in media containing G418 (400 μg/ml) to obtain a pool of stably transfected cells. Independent clones are isolated from this pool by limiting dilution to obtain clonal stable cell lines for use in subsequent experiments.
Cells transfected with expression plasmids (as described in Example 4) and thereby expressing human capsaicin receptor are seeded and grown to 70-90% confluency in FALCON black-walled, clear-bottomed 96-well plates (#3904, BECTON-DICKINSON, Franklin Lakes, N.J.). The culture medium is emptied from the 96 well plates and […] calcium sensitive dye (Molecular Probes, Eugene, Oreg.) is added to each well (dye solution: 1 mg […], 440 μL DMSO and 440 μl 20% pluronic acid in DMSO, diluted 1:250 in Krebs-Ringer HEPES (KRH) buffer (25 mM HEPES, 5 mM KCl, 0.96 mM NaH2PO4, 1 mM MgSO4, 2 mM CaCl2, 5 mM glucose, 1 mM probenecid, pH 7.4), 50 μl diluted solution per well). Plates are covered with aluminum foil and incubated at 37° C. for 1-2 hours in an environment containing 5% CO2. After the incubation, the dye is emptied from the plates, and the cells are washed once with KRH buffer, and resuspended in KRH buffer.
To measure the ability of a test compound to agonize or antagonize a calcium mobilization response in cells expressing capsaicin receptors to capsaicin or other vanilloid agonist, the EC50 of the agonist capsaicin is first determined. An additional 20 μl of KRH buffer and 1 μl DMSO is added to each well of cells, prepared as described above. 100 μl capsaicin in KRH buffer is automatically transferred by the FLIPR instrument to each well. Capsaicin-induced calcium mobilization is monitored using either FLUOROSKAN ASCENT (Labsystems; Franklin, Mass.) or FLIPR (fluorometric imaging plate reader system; Molecular Devices, Sunnyvale, Calif.) instruments. Data obtained between 30 and 60 seconds after agonist application are used to generate an 8-point concentration response curve, with final capsaicin concentrations of 1 nM to 3 μM. KALEIDAGRAPH software (Synergy Software, Reading, Pa.) is used to fit the data to the equation: y=a*(1/(1+(b/x)^c)) to determine the 50% excitatory concentration (EC50) for the response. In this equation, y is the maximum fluorescence signal, x is the concentration of the agonist or antagonist (in this case, capsaicin), a is the Emax, b corresponds to the EC50 value and c is the Hill coefficient. Determination of Agonist Activity
Test compounds are dissolved in DMSO, diluted in 20 μl KRH buffer so that the final concentration of test compounds in the assay well is between 1 μM and 5 μM, and added to cells prepared as described above. The 96 well plates containing prepared cells and test compounds are incubated in the dark, at room temperature for 0.5 to 6 hours. It is important that the incubation not continue beyond 6 hours. Just prior to determining the fluorescence response, 100 μl capsaicin in KRH buffer at twice the EC50 concentration determined as described above is automatically added by the FLIPR instrument to each well of the 96 well plate for a final sample volume of 200 μl and a final capsaicin concentration equal to the EC50. The final concentration of test compounds in the assay wells is between 1 μM and 5 μM. […] The concentration of antagonist required to provide a 50% decrease, relative to the response observed in the presence of capsaicin and without antagonist, is the IC50 for the antagonist, and is preferably below 1 micromolar, 100 nanomolar, 10 nanomolar or 1 nanomolar.

T1 sequence (Q8NER1 whole entry): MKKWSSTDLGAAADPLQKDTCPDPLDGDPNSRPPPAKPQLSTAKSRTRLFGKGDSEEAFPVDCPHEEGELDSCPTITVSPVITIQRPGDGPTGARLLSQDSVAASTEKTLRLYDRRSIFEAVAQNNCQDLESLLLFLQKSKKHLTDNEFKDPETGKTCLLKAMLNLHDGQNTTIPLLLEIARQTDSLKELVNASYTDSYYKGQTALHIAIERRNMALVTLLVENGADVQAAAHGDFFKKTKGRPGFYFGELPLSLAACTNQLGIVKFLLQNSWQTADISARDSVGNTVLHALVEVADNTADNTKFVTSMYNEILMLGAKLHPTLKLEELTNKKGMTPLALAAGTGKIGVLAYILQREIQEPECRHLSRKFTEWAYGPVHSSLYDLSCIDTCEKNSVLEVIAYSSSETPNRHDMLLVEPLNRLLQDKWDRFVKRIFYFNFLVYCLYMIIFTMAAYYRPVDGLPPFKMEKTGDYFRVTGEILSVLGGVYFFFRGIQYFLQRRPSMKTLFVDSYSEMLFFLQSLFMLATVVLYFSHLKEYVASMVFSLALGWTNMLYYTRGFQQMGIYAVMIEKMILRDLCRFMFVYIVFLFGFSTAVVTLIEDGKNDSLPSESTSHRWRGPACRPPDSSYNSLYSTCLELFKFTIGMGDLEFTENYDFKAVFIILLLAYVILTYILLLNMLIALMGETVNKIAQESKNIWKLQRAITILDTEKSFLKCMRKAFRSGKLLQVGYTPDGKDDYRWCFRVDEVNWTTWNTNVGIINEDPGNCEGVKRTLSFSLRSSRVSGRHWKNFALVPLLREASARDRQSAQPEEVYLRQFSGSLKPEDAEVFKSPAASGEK

IC50, ≤ 1 µM:
Fc1cc(F)cc(CCNc2ncnc3cc(-c4ncccc4C(F)(F)F)ccc23)c1 [Compound 28, N-[2-(3,5-difluorophenyl)ethyl]-7-[3-(trifluoromethyl)pyridin-2-yl]quinazolin-4-amine]
C[C@@H]1CN(Cc2nc(NCCc3ccccc3Cl)c3ccc(-c4ncccc4C(F)(F)F)cc3n2)C[C@H](C)O1 [Compound 24, N-[2-(2-chlorophenyl)ethyl]-2-{[(2R,6S)-2,6-dimethylmorpholin-4-yl]methyl}-7-[3-(trifluoromethyl)pyridin-2-yl]quinazolin-4-amine]
CC(C)COCc1nc(NCCc2ccccc2Cl)c2ccc(-c3ncccc3Cl)nc2n1 [Compound 47, N-[2-(2-chlorophenyl)ethyl]-7-(3-chloropyridin-2-yl)-2-(isobutoxymethyl)pyrido[2,3-d]pyrimidin-4-amine]
COc1cccc(CCNc2ncnc3cc(-c4ncccc4C(F)(F)F)ccc23)c1 [Compound 10, N-[2-(3-methoxyphenyl)ethyl]7-[3-(trifluoromethyl)pyridin-2-yl]quinazolin-4-amine]
FC(F)(F)c1ccc(CCNc2ncnc3cc(-c4ncccc4C(F)(F)F)ccc23)cc1 [Compound 17, N-{2-[4-(trifluoromethyl)phenyl]ethyl}-7-[3-(trifluoromethyl)pyridin-2-yl]quinazolin-4-amine]
CCOCc1nc(NC2Cc3ccccc3C2)c2ccc(-c3ncccc3Cl)nc2n1 [Compound 62, 7-(3-chloropyridin-2-yl)-N-(2,3-dihydro-1H-inden-2-yl)-2-(ethoxymethyl)pyrido[2,3-d]pyrimidin-4-amine]
CCOCc1nc(NCCc2ccccc2F)c2ccc(-c3ncccc3Cl)nc2n1 [Compound 52, 7-(3-chloropyridin-2-yl)-n-(ethoxymethyl)-N-[2-(2-fluorophenyl)ethyl]pyrido[2,3-d]pyrimidin-4-amine]
COc1ccccc1CCNc1nc(COCC(C)C)nc2nc(-c3ncccc3C(F)(F)F)ccc12 [Compound 41, 2-(isobutoxymethyl)-N-[2-(2-methoxyphenyl)ethyl]-7-[3-(trifluoromethyl)pyridin-2-yl]pyrido[2,3-d]pyrimidin-4-amine]
CC(C)COCc1nc(NCCc2cccc(Cl)c2)c2ccc(-c3ncccc3C(F)(F)F)nc2n1 [Compound 34, N-[2-(3-chlorophenyl)ethyl]-2-(isobutoxymethyl)-7-[3-(trifluoromethyl)pyridin-2-yl]pyrido[2,3-d]pyrimidin-4-amine]
CC(C)COCc1nc(NCCc2cccc(C(F)(F)F)c2)c2ccc(-c3ncccc3Cl)nc2n1 [Compound 51, 7-(3-chloropyridin-2-yl)-2-(isobutoxymethyl)-N-{2-[3-(trifluoromethyl)phenyl]ethyl}pyrido[2,3-d]pyrimidin-4-amine]
COc1ccc(CCNc2ncnc3cc(-c4ncccc4C(F)(F)F)ccc23)cc1 [Compound 11, N-[2-(4-methoxyphenyl)ethyl]-7-[3-(trifluoromethyl)pyridin-2-yl]quinazolin-4-amine]
Cc1nc(NCCc2ccccc2Cl)c2ccc(-c3ncccc3C)nc2n1 [Compound 32, N-[2-(2-chlorophenyl)ethyl]-2-methyl-7-(3-methylpyridin-2-yl)pyrido[2,3-d]pyrimidin-4-amine]
COc1ccccc1CCNc1ncnc2cc(-c3ncccc3C(F)(F)F)ccc12 [Compound 9, N-[2-(2-methoxyphenyl)ethYl]-7-{3-(trifluoromethyl)pyridin-2-yl]quinazolin-4-amine]
FC(F)(F)c1cccnc1-c1ccc2c(NCCc3ccc(Cl)c(Cl)c3)ncnc2c1 [Compound 20, N-[2-(3,4-dichlorophenyl)ethyl]-7-[3-(trifluoromethyl)pyridin-2-yl]quinazolin-4-anmne]
CCOCc1nc(NCCc2ccccc2Cl)c2ccc(-c3ncccc3Cl)nc2n1 [Compound 54, N-[2-(2-chlorophenyl)ethyl]-7-(3-chloropyridin-2-yl)-2-(ethoxymethyl)pyrido[2,3-d]pyrimidin-4-amine]
COc1cccc(CCNc2nc(COCC(C)C)nc3nc(-c4ncccc4C(F)(F)F)ccc23)c1 [Compound 42, 2-(isobutoxymethyl)-N-[2-(3-methoxyphenyl)ethyl]-7-[3-(trifluoromethyl)pyridin-2-yl]pyrido[2,3-d]pyrimidin-4-amine]
CC(Cc1ccc(Cl)cc1)Nc1ncnc2cc(-c3ncccc3C(F)(F)F)ccc12 (stereo not drawn) [Compound 21, N-[2-(4-chlorophenyl)-1-methylethyl]-7-[3-(trifluoromethyl)pyridin-2-yl]quinazolin-4-amine]
FC(F)(F)c1cccnc1-c1ccc2c(N[C@@H]3C[C@H]3c3ccccc3)ncnc2c1 [Compound 31, N-[(1R,2S)-2-phenylcyclopropyl]-7-[3-(trifluoromethyl)pyridin-2-yl]quinazolin-4-amine]
Cc1nc(NCCc2ccccc2Cl)c2ncc(-c3ncccc3Cl)cc2n1 [Compound 30, N-[2-(2-chlorophenyl)ethyl]-7-(3-chloropyridin-2-yl)-2-methylpyrido[3,2-d]pyrimidin-4-amine]

Same assay, conditions: Table II; 50% decrease in fluorescence response of cells expressing human capsaicin receptor exposed to capsaicin

IC50, ≤ 1 µM:
CCCCCCN(CCCCCC)Cc1nc(NCCc2ccccc2Cl)c2ccc(-c3ncccc3C(F)(F)F)cc2n1 [Compound 175, [2-(2-Chloro-phenyl)-ethyl]-[2-dihexylaminomethyl-7-(3-trifluoromethyl-pyridin-2-yl)-quinazolin-4-yl]-amine]
Cc1ccccc1CCNc1nc(CN(C)C2CCCCC2)nc2cc(-c3ncccc3C(F)(F)F)ccc12 [Compound 158, [2-[(Cyclohexyl-methyl-amino)-methyl]-7-(3-trifluoromethyl-pyridin-2-yl)-quinazolin-4-yl]-(2-o-tolyl-ethyl)-amine]
FC(F)(F)c1cccnc1-c1ccc2c(NC3CCc4ccccc4C3)ncnc2c1 (stereo not drawn) [Compound 77, (1,2,3,4-Tetrahydro-naphthalen-2-yl)-[7-(3-trifluoromethyl-pyridin-2-yl)-quinazolin-4-yl]-amine]
CCC(CNc1ncnc2cc(-c3ncccc3C(F)(F)F)ccc12)c1ccccc1 (stereo not drawn) [Compound 68, (2-Phenyl-butyl)-[7-(3-trifluoromethyl-pyridin-2-yl)-quinazolin-4-yl]-amine]
CCCCC(CNc1ncnc2cc(-c3ncccc3C(F)(F)F)ccc12)c1ccccc1 (stereo not drawn) [Compound 70, (2-Phenyl-hexyl)-[7-(3-trifluoromethyl-pyridin-2-yl)-quinazolin-4-yl]-amine]
CC1CC(C)CN(Cc2nc(NCCc3ccccc3Cl)c3ccc(-c4ncccc4C(F)(F)F)cc3n2)C1 (stereo not drawn) [Compound 178, [2-(2-Chloro-phenyl)-ethYl]-[2-(3,5-dimethyl-piperidin-1-ylmethyl)-7-(3-trifluoromethyl-pyridin-2-yl)-quinazolin-4-yl]-amine]
CCCCN(CCCC)Cc1nc(NCCc2ccccc2)c2ccc(-c3ncccc3C(F)(F)F)cc2n1 [Compound 145, [2-Dibutylaminomethyl-7-(3-trifluoromethyl-pyridin-2-yl)-quinazolin-4-yl]-phenethyl-amine]
CCCC(CNc1ncnc2cc(-c3ncccc3C(F)(F)F)ccc12)c1ccccc1 (stereo not drawn) [Compound 69, (2-Phenyl-pentyl)-[7-(3-trifluoromethyl-pyridin-2-yl)-quinazolin-4-yl]-amine]
